# Reference: ChEMBL document CHEMBL4004838, “Design and synthesis of novel phenyl -1, 4-beta-carboline-hybrid molecules as potential anticancer agents” (Eur J Med Chem, 2017)
# Activity calls are given as the source filed them. No cut-off for these calls is given here.
# Columns and labels:
# [1] = tested on: T47D; assay: Growth inhibition of human T47D cells assessed as cell growth at 100 uM incubated for 48 hrs by sulforhodamine B assay relative to control; format: functional; details: read-out: Activity
# [2] = tested on: HL-60(TB); assay: Growth inhibition of human HL-60(TB) cells incubated for 48 hrs by sulforhodamine B assay; format: functional; details: HL-60, 48 h
# [3] = tested on: NCI-H226; assay: Growth inhibition of human NCI-H226 cells assessed as cell growth at 1 uM incubated for 48 hrs by sulforhodamine B assay relative to control; format: functional; details: NCI-H226, 48 h, read-out: Activity
# [4] = tested on: OVCAR-8; assay: Growth inhibition of human OVCAR8 cells assessed as cell growth at 0.01 uM incubated for 48 hrs by sulforhodamine B assay relative to control; format: functional; details: OVCAR-8, 48 h, read-out: Activity
# [5] = tested on: SK-MEL-28; assay: Growth inhibition of human SK-MEL-28 cells incubated for 48 hrs by sulforhodamine B assay; format: functional; details: SK-MEL-28, 48 h
# [6] = tested on: NCI/ADR-RES; assay: Growth inhibition of human NCI-ADR-RES cells assessed as cell growth at 1 uM incubated for 48 hrs by sulforhodamine B assay relative to control; format: functional; details: read-out: Activity
# [7] = tested on: MCF7; assay: Growth inhibition of human MCF7 cells assessed as cell growth at 100 uM incubated for 48 hrs by sulforhodamine B assay relative to control; format: functional; details: MCF7, 48 h, read-out: Activity
# [8] = tested on: SF-295; assay: Growth inhibition of human SF295 cells assessed as cell growth at 100 uM incubated for 48 hrs by sulforhodamine B assay relative to control; format: functional; details: SF-295, 48 h, read-out: Activity
# [9] = tested on: SF-268; assay: Growth inhibition of human SF268 cells assessed as cell growth at 0.01 uM incubated for 48 hrs by sulforhodamine B assay relative to control; format: functional; details: SF-268, 48 h, read-out: Activity
# [10] = tested on: DU-145; assay: Growth inhibition of human DU145 cells assessed as cell growth at 0.01 uM incubated for 48 hrs by sulforhodamine B assay relative to control; format: functional; details: DU-145, 48 h, read-out: Activity
# [11] = tested on: PC-3; assay: Growth inhibition of human PC3 cells assessed as cell growth at 0.1 uM incubated for 48 hrs by sulforhodamine B assay relative to control; format: functional; details: PC-3, 48 h, read-out: Activity
# [12] = tested on: NCI-H23; assay: Growth inhibition of human NCI-H23 cells assessed as cell growth at 100 uM incubated for 48 hrs by sulforhodamine B assay relative to control; format: functional; details: NCI-H23, 48 h, read-out: Activity
# [13] = tested on: MDA-MB-435; assay: Growth inhibition of human MDA-MB-435 cells assessed as cell growth at 0.01 uM incubated for 48 hrs by sulforhodamine B assay relative to control; format: functional; details: MDA-MB-435, 48 h, read-out: Activity
# [14] = tested on: DU-145; assay: Growth inhibition of human DU145 cells assessed as cell growth at 100 uM incubated for 48 hrs by sulforhodamine B assay relative to control; format: functional; details: DU-145, 48 h, read-out: Activity
# [15] = tested on: Hs-578T; assay: Growth inhibition of human Hs 578T cells incubated for 48 hrs by sulforhodamine B assay; format: functional
# [16] = tested on: NCI/ADR-RES; assay: Growth inhibition of human NCI-ADR-RES cells assessed as cell growth at 0.1 uM incubated for 48 hrs by sulforhodamine B assay relative to control; format: functional; details: read-out: Activity
# [17] = tested on: SNB-75; assay: Growth inhibition of human SNB75 cells incubated for 48 hrs by sulforhodamine B assay; format: functional; details: SNB-75, 48 h
# [18] = tested on: MDA-MB-435; assay: Growth inhibition of human MDA-MB-435 cells assessed as cell growth at 100 uM incubated for 48 hrs by sulforhodamine B assay relative to control; format: functional; details: MDA-MB-435, 48 h, read-out: Activity
# [19] = tested on: HL-60(TB); assay: Growth inhibition of human HL-60(TB) cells assessed as cell growth at 1 uM incubated for 48 hrs by sulforhodamine B assay relative to control; format: functional; details: HL-60, 48 h, read-out: Activity
# [20] = tested on: NCI-H322M; assay: Growth inhibition of human NCI-H322M cells assessed as cell growth at 0.1 uM incubated for 48 hrs by sulforhodamine B assay relative to control; format: functional; details: read-out: Activity
# [21] = tested on: NCI-H460; assay: Growth inhibition of human NCI-H460 cells assessed as cell growth at 0.1 uM incubated for 48 hrs by sulforhodamine B assay relative to control; format: functional; details: NCI-H460, 48 h, read-out: Activity
# [22] = tested on: UACC-257; assay: Growth inhibition of human UACC257 cells assessed as cell growth at 1 uM incubated for 48 hrs by sulforhodamine B assay relative to control; format: functional; details: UACC-257, 48 h, read-out: Activity
# [23] = tested on: ACHN; assay: Growth inhibition of human ACHN cells assessed as cell growth at 0.01 uM incubated for 48 hrs by sulforhodamine B assay relative to control; format: functional; details: read-out: Activity
# [24] = tested on: U-251; assay: Growth inhibition of human U251 cells assessed as cell growth at 1 uM incubated for 48 hrs by sulforhodamine B assay relative to control; format: functional; details: U-251, 48 h, read-out: Activity
# [25] = tested on: SK-MEL-2; assay: Growth inhibition of human SK-MEL-2 cells incubated for 48 hrs by sulforhodamine B assay; format: functional; details: SK-MEL-2, 48 h
# [26] = species: Bos taurus; assay: Induction of calf thymus DNA intercalation assessed as compound-DNA complex formation at 5 uM incubated for 1 hr by ethidium bromide staining based agarose gel electrophoresis relative to control
# [27] = tested on: 786-0; assay: Growth inhibition of human 786-0 cells assessed as cell growth at 1 uM incubated for 48 hrs by sulforhodamine B assay relative to control; format: functional; details: 786-0, 48 h, read-out: Activity
# [28] = tested on: TK-10; assay: Growth inhibition of human TK10 cells assessed as cell growth at 0.01 uM incubated for 48 hrs by sulforhodamine B assay relative to control; format: functional; details: TK-10, 48 h, read-out: Activity
# [29] = tested on: DU-145; assay: Growth inhibition of human DU145 cells incubated for 48 hrs by sulforhodamine B assay; format: functional; details: DU-145, 48 h; for TGI: read-out: pTGI (converted)
# [30] = tested on: HCT-116; assay: Growth inhibition of human HCT116 cells assessed as cell growth at 0.01 uM incubated for 48 hrs by sulforhodamine B assay relative to control; format: functional; details: HCT-116, 48 h, read-out: Activity
# [31] = read-out: LC50 (the source's name)
# [32] = read-out: pLC50 (the source's name) (converted)
smiles,measurement,setting,value
c1ccc2c3c([nH]c2c1)C(c1ccc(C2NCCc4c2[nH]c2ccccc42)cc1)NCC3 (racemic),growth at 100 µM,[1],-72%
same,GI50,[2]; read-out: GI50,1.13 µM
same,CC50,[2]; [31],6.99 µM
same,TGI,[2]; read-out: TGI,2.81 µM
same,GI50,[2]; read-out: pGI50 (converted),1.12 µM
same,CC50,[2]; [32],6.92 µM
same,TGI,[2]; read-out: pTGI (converted),2.82 µM
same,growth at 1 µM,[3],94%
same,growth at 0.01 µM,[4],101%
same,GI50,[5]; read-out: GI50,1.68 µM
same,CC50,[5]; [31],5.99 µM
same,TGI,[5]; read-out: TGI,3.18 µM
same,GI50,[5]; read-out: pGI50 (converted),1.7 µM
same,CC50,[5]; [32],6.03 µM
same,TGI,[5]; read-out: pTGI (converted),3.16 µM
same,growth at 1 µM,[6],78%
same,growth at 100 µM,[7],-74%
same,growth at 100 µM,[8],89%
same,growth at 0.01 µM,[9],92%
same,growth at 0.01 µM,[10],100%
same,growth at 0.1 µM,[11],94%
same,growth at 100 µM,[12],86%
same,growth at 0.01 µM,[13],95%
same,growth at 100 µM,[14],-94%
same,GI50,[15]; read-out: GI50,1.43 µM
same,CC50,[15]; [31],11.5 µM
same,TGI,[15]; read-out: TGI,3.82 µM
same,GI50,[15]; read-out: pGI50 (converted),1.45 µM
same,CC50,[15]; [32],11.5 µM
same,TGI,[15]; read-out: pTGI (converted),3.8 µM
same,growth at 0.1 µM,[16],93%
same,CC50,[17]; [31],4.59 µM
same,GI50,[17]; read-out: pGI50 (converted),0.692 µM
same,CC50,[17]; [32],4.57 µM
same,TGI,[17]; read-out: pTGI (converted),2.09 µM
same,growth at 100 µM,[18],97%
same,growth at 1 µM,[19],57%
same,growth at 0.1 µM,[20],91%
same,growth at 0.1 µM,[21],106%
same,growth at 1 µM,[22],103%
same,growth at 0.01 µM,[23],92%
same,growth at 1 µM,[24],4%
same,GI50,[25]; read-out: GI50,1.7 µM
same,CC50,[25]; [31],7.47 µM
same,TGI,[25]; read-out: TGI,3.57 µM
same,GI50,[25]; read-out: pGI50 (converted),1.7 µM
same,CC50,[25]; [32],7.41 µM
same,TGI,[25]; read-out: pTGI (converted),3.55 µM
same,Activity,[26],Active
same,growth at 1 µM,[27],92%
same,growth at 0.01 µM,[28],97%
same,CC50,[29]; [31],5.16 µM
same,GI50,[29]; read-out: pGI50 (converted),0.741 µM
same,CC50,[29]; [32],5.13 µM
same,TGI,[29],2.14 µM
same,growth at 0.01 µM,[30],91%
c1ccc2[nH]c(-c3ccc(-c4nccc5c4[nH]c4ccccc45)cc3)nc2c1,growth at 100 µM,[1],53%
same,GI50,[2]; read-out: GI50,2.03 µM
same,CC50,[2]; [31],> 1 µM
same,TGI,[2]; read-out: TGI,4.59 µM
same,GI50,[2]; read-out: pGI50 (converted),2.04 µM
same,CC50,[2]; [32],> 100 µM
same,TGI,[2]; read-out: pTGI (converted),4.57 µM
same,growth at 1 µM,[3],96%
same,growth at 0.01 µM,[4],100%
same,GI50,[5]; read-out: GI50,1.96 µM
same,CC50,[5]; [31],7.2 µM
same,TGI,[5]; read-out: TGI,3.75 µM
same,GI50,[5]; read-out: pGI50 (converted),1.95 µM
same,CC50,[5]; [32],7.24 µM
same,TGI,[5]; read-out: pTGI (converted),3.72 µM
same,growth at 1 µM,[6],98%
same,growth at 100 µM,[7],72%
same,growth at 100 µM,[8],71%
same,growth at 0.01 µM,[9],97%
same,growth at 0.01 µM,[10],98%
same,growth at 0.1 µM,[11],100%
same,growth at 100 µM,[12],54%
same,growth at 0.01 µM,[13],93%
same,growth at 100 µM,[14],72%
same,GI50,[15]; read-out: GI50,2.23 µM
same,TGI,[15]; read-out: TGI,5.93 µM
same,GI50,[15]; read-out: pGI50 (converted),2.24 µM
same,CC50,[15]; [32],> 100 µM
same,TGI,[15]; read-out: pTGI (converted),5.89 µM
same,growth at 0.1 µM,[16],98%
same,GI50,[17]; read-out: GI50,1.57 µM
same,CC50,[17]; [31],1.19 µM
same,TGI,[17]; read-out: TGI,4.08 µM
same,GI50,[17]; read-out: pGI50 (converted),1.58 µM
same,CC50,[17]; [32],12 µM
same,TGI,[17]; read-out: pTGI (converted),4.07 µM
same,growth at 100 µM,[18],67%
same,growth at 1 µM,[19],94%
same,growth at 0.1 µM,[20],101%
same,growth at 0.1 µM,[21],110%
same,growth at 1 µM,[22],96%
same,growth at 0.01 µM,[23],99%
same,growth at 1 µM,[24],98%
same,GI50,[25]; read-out: GI50,1.99 µM
same,CC50,[25]; [31],9.45 µM
same,TGI,[25]; read-out: TGI,4.34 µM
same,GI50,[25]; read-out: pGI50 (converted),2 µM
same,CC50,[25]; [32],9.55 µM
same,TGI,[25]; read-out: pTGI (converted),4.37 µM
same,Activity,[26],Active
same,growth at 1 µM,[27],89%
same,growth at 0.01 µM,[28],96%
same,GI50,[29]; read-out: GI50,4.02 µM
same,CC50,[29]; [31],5.74 µM
same,GI50,[29]; read-out: pGI50 (converted),3.98 µM
same,CC50,[29]; [32],57.5 µM
same,TGI,[29],16.2 µM
same,growth at 0.01 µM,[30],92%
